Laboratory results published in US20150218516A1, “COMPOSITIONS AND METHODS FOR ENHANCING IMMUNE RESPONSES MEDIATED BY ANTIGEN-PRESENTING CELLS” (The Board of Regents of the University of Nebraska, priority 2007, published 2015).
“Also recorded” adds a separate entry of the source. Non-standard residues stand in square brackets, D forms with d. Residues, ends and D or L forms follow the SMILES beside them. No end group written: not given here.

Tests used:
[1] = tested on: P815S (HBsAg transfectant) target cells; experiment: HBsAg-specific CTL response of immunized mice, 51Cr-release cytotoxicity assay; assay type: in vivo, BALB/c mice; conditions: for Ag-specific CTL response (in words): two or three s.c. injections at 21 day intervals, no added adjuvant; for % Specific Lysis: s.c. in PBS
Procedure: Groups of six to eight BALB/c mice were given bilateral s.c. injections in the inguinal area with (100 al each side) of a PBS solution containing 50-100 μg of the peptides. Booster injections were given s.c. in the inguinal region at 21-day intervals. Sera for Ab analysis were obtained by retro-orbital bleeds of mice under CO2 narcosis.
Three weeks after secondary) (2° immunization and two weeks after tertiary)(3° immunization, two to three mice from each experimental group were sacrificed by cervical dislocation and their spleens removed aseptically. Pooled splenic single-cell suspensions were prepared in RPMI-1640 medium (Sigma, St. Louis, Mo.) containing 10% FBS (Hyclone, Salt Lake City, Utah) and the following supplements: 10 mM HEPES buffer, 50 μM 2-ME, 2 mM L-glutamine, 50 μg/ml gentamicin sulfate, 100 Um′ penicillin, and 50 μg/ml streptomycin (all supplements from Sigma). This supplemented complete medium is designated RP10-SC. For culture, 75×10^6 pooled spleen cells in 5 ml of RP10-SC were pipetted into a 25 cm^2 T-flask (Corning). Next, 5 ml of RP 10-SC containing 150 nM of synthetic, L^d MHC class I-restricted peptide, […] (SEQ ID NO:12) were added to the flask. The flasks were incubated undisturbed in an upright position at 37° C. in 5% CO2. After 4 days of incubation, the cells were recovered from the T-flasks, washed once by centrifugation in fresh RP10-SC, resuspended in 5 ml RP10-SC, counted, and adjusted to 5×10^6 viable cells/ml.
The specific cell target used for measuring CTL activity was P815S, a transfectant cell line of P815 (H-2^d) expressing the HBsAg (14). P815S was grown in RP10-SC medium containing 400 μg/ml geneticin disulfate (G418, Sigma). The parental H-2^d mastocytoma cell line, P815 (ATTC #TIB64) grown in RP10-SC medium, was used as a non-specific target for CTL assays to measure % non-specific lysis.
The target cells, either P815S or P815, were washed 2 times in RP10-SC. For labeling, 5×10^6 target cells were mixed with 250 μCi ^51Cr-sodium chromate[400-1200 Ci (14.8-44.4 TBq)]/[…]; NEN Dupont, Boston, Mass.) in a 1.0 ml volume in a 50 ml conical tube and incubated in a 37° C. water bath for 90 mins. After incubation, the labeled cells were washed 3 times by centrifugation using 15 ml volumes of fresh RP10-SC and allowed to stand at room temperature for 30 mins. The pelleted cells were resuspended in RP10-SC at 1×10^6 cells/ml.
The recovered splenic effector cells at 5×10^6 cells/ml were serially diluted in triplicate in wells of round-bottom 96 well plates (Corning, 25850) in a total volume of 100 al/well and using RP10-SC as the diluent. Next, 100 μl volumes of ^51Cr-labeled targets, P815S or P815, at 1×10^6 cells/ml were added to the wells. Maximum release (MR) wells contained 100 al of target cells and 100 al of 2% (v/v) Tween 20 while spontaneous release (SR) wells contained labeled cells in medium alone. Effector-to-target ratios of 50:1, 25:1, 12.5:1, and 6.25:1 were routinely employed. The plates were centrifuged at 400×g and incubated at 37° C. in 5% CO2 for 4 hrs. After incubation, the supernatant fractions in the wells were collected using a Skatron Supernatant Collection System (Skatron Instruments, Sterlin, Va.). The amount of ^51Cr radioactivity in the supernatant fractions was measured using a Wallac 1470 Wizard gamma counter (Turku, Finland).

human PMNs = experiment: MPO release from human PMNs; assay type: cell-based; conditions: for EC50: 50% maximum release of myeloperoxidase; for pD2 ± SE: −log EC50 (M), mean ± SE, n=3
Procedure: (§1) Statistical analysis of the values obtained from pharmacologic assays was performed using one-way analysis of variance (ANOVA).

human umbilical artery = experiment: Smooth muscle contraction of human umbilical artery; assay type: cell-based; conditions: for EC50: concentration resulting in 50% maximum contraction; for agonist behaviour relative to natural C5a (in words): umbilical artery contraction and MPO release assays; for pD2 ± SE: −log EC50 (M), mean ± SE, n=3
Procedure: as §1

MUC1 epitope peptide = experiment: Serum antibody response to MUC1 epitope peptide in immunized mice (RIA); assay type: in vivo, C57B16 and Balb/c mice; conditions: 100 μg i.p. with RIBI adjuvant, three immunizations, sera at 6 weeks
Source text: The strains of mice used for this example were inbred females 6 to 12 week old C57B16(H-2^b) and Balb/c (H-2^d), which were obtained from Jackson labs (Bar Harbor, Me.). […] The MUC1 peptide selected for these studies contained a motif that may bind to the H-2K^b molecule of the C57B16 mice; therefore, a strain of mouse that lacked this class I molecule binding motif (Balb/c) was also studied to determine the relative contribution of the class I binding motif to the antigen presentation properties of these peptides.
(§2) Preimmune sera were obtained from mice, which were subsequently immunized intraperitoneally with 100 μg of the indicated peptide with RIBI adjuvant (MPL+TDM+CWS) (Sigma Immunochemicals). Animals were boosted twice at two week intervals using the same injection procedure. Sera were obtained following three immunizations (at 6 weeks).
For radioimmunoassay (RIA), anti-peptide antibodies were determined, before and at different time points after immunization, in 96-well microtiter plates (Dynatech Laboratories, Inc.). Plates were coated with 50 μl of a 100 μg/ml appropriate peptide in phosphate-buffered saline (PBS) pH 7.4 solution overnight at 4° C. The wells were blocked by incubation with 5% dry milk in PBS pH 7.4 for at least two hours. Anti-peptide antibody titers were determined using serial dilutions of sera. The sera were diluted with PBS containing 0.05% Tween-20, pH 7.4 (washing buffer) and 50 μl of each dilution was incubated at 37° C. for 1 hour. The wells were then drained, washed 4 times with PBS-Tween and 50 μl of ^125I-goat anti-mouse Ab (1-2×10^4 cpm/well) was added and incubated for 1 hr at 25° C. After washing, specific radioactivity was recorded in a gamma counter (1272 CliniGamma, LKB).
Experimental groups were as follows: • Group A. mice immunized with peptide (1) • Group B. mice immunized with peptide (2) • Group C. mice immunized with peptide (1) plus peptide (2) • Group D. mice immunized with peptide (3) • Group E. mice immunized with peptide (4).

MUC1 peptide = experiment: MUC1 specific antibody isotype titers in immunized mice (ELISA); assay type: in vivo, C57BL6 mice; conditions: for Ab titer IgA / Ab titer IgG1 / Ab titer IgG2a / Ab titer IgG2b / Ab titer IgG3 / Ab titer IgM: mean titer of responders, sera screened against MUC1 peptide, five mice
Procedure: as §2
Anti-peptide antibody isotype titers were determined by enzyme-linked immunosorbent assay (ELISA) carried out in 96-well microtiter plates. The plates were coated with 100 μg/ml of appropriate peptide in PBS, pH 7.4, and incubated overnight. The wells were blocked with 5% dry milk in PBS pH 7.4 for at least two hours. Anti-peptide titers were determined using serial dilutions of sera as described above. After the plates were washed 4 times, 50 μl of a 1:100 dilution of rabbit anti-mouse IgA, IgG1, IgG2a, IgG2b, IgG3 and IgM (Zymed) was added to each well and incubated at 25° C. for 1 hour. The plates were washed 4 times with washing buffer and 50 μl of 1:500 goat anti-rabbit conjugated to […] (Zymed) was incubated at 37° C. for 1 hour. Again, the plates were washed 4 times with washing buffer and bound enzyme was detected by the addition of 50 μl 1 mg/ml p-nitrophenyl phosphate (Sigma) in 10% diethanolamine (Sigma) pH 9.4. The reaction was stopped by the addition of 50 μl of 0.5 M sodium hydroxide and absorbance values (A405) were determined on Titertek Multiskan (Flow Laboratories, Irvine, Scotland).
The following experiment was performed in order to compare the potency of the molecular adjuvant of the present invention with a widely used method for enhancing the immune response to peptide epitopes. The objective was a direct comparison of the response to a construct of MUC1 epitope-C5a agonist and the same epitope conjugated to keyhole limpet hemocyanine (KLH) in mice.

[2] = Effector:Target 6.25:1, boost day 21, spleen cells day 42
[3] = Effector:Target 12.5:1, boost day 21, spleen cells day 42
[4] = Effector:Target 25:1, boost day 21, spleen cells day 42
[5] = Effector:Target 50:1, boost day 21, spleen cells day 42, restimulated 4 days with S28-39

CC[C@H](C)[C@H](N)C(=O)N1CCC[C@H]1C(=O)N[C@@H](CCC(N)=O)C(=O)N[C@@H](CO)C(=O)N[C@@H](CC(C)C)C(=O)N[C@@H](CC(=O)O)C(=O)N[C@@H](CO)C(=O)N[C@@H](Cc1c[nH]c2ccccc12)C(=O)N[C@@H](Cc1c[nH]c2ccccc12)C(=O)N[C@H](C(=O)N[C@@H](CO)C(=O)N[C@@H](CC(C)C)C(=O)N[C@@H](CCCNC(=N)N)C(=O)N[C@H](C(=O)N[C@@H](CCCNC(=N)N)C(=O)N[C@@H](CCCNC(=N)N)C(=O)N[C@@H](Cc1ccc(O)cc1)C(=O)N[C@@H](CO)C(=O)N[C@@H](Cc1ccccc1)C(=O)N[C@@H](CCCCN)C(=O)N1CCC[C@H]1C(=O)N[C@@H](CCSC)C(=O)N1CCC[C@H]1C(=O)N[C@@H](CC(C)C)C(=O)N[C@H](C)C(=O)N[C@@H](CCCNC(=N)N)C(=O)O)C(C)C)[C@@H](C)O (H-IPQSLDSWWTSLRVRRYSFKPMPL[dA]R-OH)
Ag-specific CTL response (in words) [1]: specific CTL response that was significantly above background levels; also recorded: robust CTL activity | EC50 (human PMNs): 2.15 µM | pD2 ± SE (human PMNs): 5.61 ± 0.19 | EC50 (human umbilical artery): 0.18 µM | agonist behaviour relative to natural C5a (in words) (human umbilical artery): full agonists | pD2 ± SE (human umbilical artery): 6.67 ± 0.22

CC[C@H](C)[C@H](N)C(=O)N1CCC[C@H]1C(=O)N[C@@H](CCC(N)=O)C(=O)N[C@@H](CO)C(=O)N[C@@H](CC(C)C)C(=O)N[C@@H](CC(=O)O)C(=O)N[C@@H](CO)C(=O)N[C@@H](Cc1c[nH]c2ccccc12)C(=O)N[C@@H](Cc1c[nH]c2ccccc12)C(=O)N[C@H](C(=O)N[C@@H](CO)C(=O)N[C@@H](CC(C)C)C(=O)N[C@@H](Cc1ccc(O)cc1)C(=O)N[C@@H](CO)C(=O)N[C@@H](Cc1ccccc1)C(=O)N[C@@H](CCCCN)C(=O)N1CCC[C@H]1C(=O)N[C@@H](CCSC)C(=O)N1CCC[C@H]1C(=O)N[C@@H](CC(C)C)C(=O)N[C@H](C)C(=O)N[C@@H](CCCNC(=N)N)C(=O)O)[C@@H](C)O (H-IPQSLDSWWTSLYSFKPMPL[dA]R-OH)
% Specific Lysis [1, 2]: 1% | % Specific Lysis [1, 3]: 2% | % Specific Lysis [1, 4]: 4% | % Specific Lysis [1, 5]: 6% | Ag-specific CTL response (in words) [1]: lack of a CTL response | EC50 (human PMNs): 1.58 µM | pD2 ± SE (human PMNs): 5.80 ± 0.04 | EC50 (human umbilical artery): 0.21 µM | agonist behaviour relative to natural C5a (in words) (human umbilical artery): full agonists | pD2 ± SE (human umbilical artery): 6.68 ± 0.17

IPQSLDSWWTSL [HBsAg L^d MHC class I-restricted peptide S28-39, reference compound]
% Specific Lysis [1, 2]: 3% | % Specific Lysis [1, 3]: 3% | % Specific Lysis [1, 4]: 5% | % Specific Lysis [1, 5]: 7%

IPQSLDSWWTSLRR [reference compound]
% Specific Lysis [1, 2]: 0% | % Specific Lysis [1, 3]: 1% | % Specific Lysis [1, 4]: 2% | % Specific Lysis [1, 5]: 2%

YKQGGFLGL [reference compound]
antibody response (in words) (MUC1 epitope peptide): no appreciable increase in antibody response

YKQGGFLGL-KLH (YKQGGFLGL-{KLH}; also: conjugated to KLH) [reference compound]
Ab titer IgA (MUC1 peptide): 0 | Ab titer IgG1 (MUC1 peptide): 100 | Ab titer IgG2a (MUC1 peptide): 0 | Ab titer IgG2b (MUC1 peptide): 0 | Ab titer IgG3 (MUC1 peptide): 0 | Ab titer IgM (MUC1 peptide): 5010 | number of responders IgG1 (MUC1 peptide; responders / mice immunized): (2/5) | number of responders IgM (MUC1 peptide; responders / mice immunized): (4/5)

YKQGGFLGLYSFKPMPLaR
isotypes of the anti-peptide antibodies produced (MUC1 peptide; FIG. 3): IgM, IgG2a, and IgG2b | specificity of antibody response for the MUC1 epitope (MUC1 peptide; FIG. 4): high percentage of antibodies that are specific for the MUC1 epitope | Ab titer IgA (MUC1 peptide): 0 | Ab titer IgG1 (MUC1 peptide): 0 | Ab titer IgG2a (MUC1 peptide): 1260 | Ab titer IgG2b (MUC1 peptide): 1780 | Ab titer IgG3 (MUC1 peptide): 0 | Ab titer IgM (MUC1 peptide): 6310 | number of responders IgG2a (MUC1 peptide; responders / mice immunized): (5/5) | number of responders IgG2b (MUC1 peptide; responders / mice immunized): (5/5) | number of responders IgM (MUC1 peptide; responders / mice immunized): (5/5) | antibody response (in words) (MUC1 epitope peptide; listed as MUC1 epitope/C5a agonist peptide conjugate): appreciable antibody response | antibody response (in words) (MUC1 epitope peptide; listed as peptide 3): substantial responses

YSFKPMPLaRKQGGFLGL (YSFKPMPL[dA]RKQGGFLGL)
antibody response (in words) (MUC1 epitope peptide): immune responses were not produced
